Laboratory results taken from patent US8722849B2, “Polypeptides” (Novo Nordisk A/S, priority 2011, dated 2014).
pEC50: −log10 of the molar value. In brackets after ≈: the same amount, converted by molar mass. Read-outs that look alike come from different tables or passages of the source. Starred links: 1 amine or outer side, 2 acyl side, 3 side chain; linkers in the order of their positions; H or OH if unused. Positions of bridges follow the written chain, without caps; N, C: chain ends. Non-standard residues stand in square brackets, D forms with d. Residues, ends and D or L forms follow the SMILES beside them. *: point of attachment. C20 diacid = O=C(O)CCCCCCCCCCCCCCCCCCC(=O)*; γGlu = O=C(O)[C@H](CCC(=O)[*:2])N[*:1]; AEEA = NCCOCCOCC(=O)O

Experiments:
[1] = Assay (IV) determination of solubility; type: physicochemical
In short: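 Polypeptide in water (~500 nmol/ml stock) was mixed 1:1 with 100 mM buffers from pH 3.0 to 8.0 (glycylglycine pH 3.0–5.0; bistrispropane pH 6.0–8.0). After 18 hours at room temperature, samples were centrifuged and the polypeptide remaining in solution was quantified by HPLC.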

[2] = target: T1, human amylin receptor (amylin 3(a) receptor: human calcitonin receptor + RAMP-3) (Homo sapiens, UniProt O60896+P30988); assay: Assay (II)a functional CRE-luciferase assay, human amylin receptor; type: cell-based
T1 construct: expressed in transfected cells; host or cells: BHK570
T1 sequence (P30988 25-474): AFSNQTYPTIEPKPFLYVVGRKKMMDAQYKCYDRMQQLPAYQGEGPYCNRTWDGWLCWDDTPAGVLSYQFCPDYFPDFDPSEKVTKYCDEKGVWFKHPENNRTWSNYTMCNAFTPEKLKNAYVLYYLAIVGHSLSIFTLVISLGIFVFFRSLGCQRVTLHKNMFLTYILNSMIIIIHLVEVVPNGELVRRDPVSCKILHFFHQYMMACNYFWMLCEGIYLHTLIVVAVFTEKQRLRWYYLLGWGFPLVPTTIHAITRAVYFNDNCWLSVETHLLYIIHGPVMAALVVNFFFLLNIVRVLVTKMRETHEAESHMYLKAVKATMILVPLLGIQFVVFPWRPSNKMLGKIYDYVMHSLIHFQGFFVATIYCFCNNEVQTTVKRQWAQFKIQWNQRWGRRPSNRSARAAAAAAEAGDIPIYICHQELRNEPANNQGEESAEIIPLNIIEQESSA
T1 sequence (O60896 24-148 partner): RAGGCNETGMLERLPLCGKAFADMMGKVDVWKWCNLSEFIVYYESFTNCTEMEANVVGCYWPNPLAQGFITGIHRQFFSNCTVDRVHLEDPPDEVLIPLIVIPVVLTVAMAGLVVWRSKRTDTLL

[3] = target: T2, rat amylin 3(a) receptor (rat calcitonin(a) receptor + rat RAMP3) (Rattus norvegicus, UniProt P32214+Q9JJ73); assay: Assay (II)b functional cAMP FlashPlate assay, rat amylin receptor; type: cell-based; settings: Table 11
T2 construct: expressed in transfected cells; host or cells: BHK tk'ts 13
T2 sequence (P32214 25-479 isoform P32214-2 limits assumed): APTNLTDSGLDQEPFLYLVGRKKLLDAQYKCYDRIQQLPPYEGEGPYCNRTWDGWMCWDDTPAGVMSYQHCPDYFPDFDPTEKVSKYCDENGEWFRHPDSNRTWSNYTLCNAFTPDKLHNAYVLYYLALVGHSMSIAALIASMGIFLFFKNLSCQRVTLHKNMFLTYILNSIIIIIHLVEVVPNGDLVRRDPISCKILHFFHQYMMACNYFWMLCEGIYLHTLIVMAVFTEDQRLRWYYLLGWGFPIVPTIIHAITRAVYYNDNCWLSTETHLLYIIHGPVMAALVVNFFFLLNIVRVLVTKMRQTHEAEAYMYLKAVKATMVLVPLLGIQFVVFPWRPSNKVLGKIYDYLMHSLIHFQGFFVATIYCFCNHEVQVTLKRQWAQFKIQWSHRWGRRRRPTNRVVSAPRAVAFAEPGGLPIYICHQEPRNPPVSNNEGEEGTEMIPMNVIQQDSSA
T2 sequence (Q9JJ73 23-147 partner): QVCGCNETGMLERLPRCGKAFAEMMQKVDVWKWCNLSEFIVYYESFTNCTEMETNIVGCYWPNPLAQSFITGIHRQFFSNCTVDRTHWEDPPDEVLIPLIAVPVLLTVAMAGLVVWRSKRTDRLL
From the text: (§1) Assay (II)b—Rat Calcitonin and Rat Amylin Receptor Assays
(§2) Activation of calcitonin and amylin (coexpression of calcitonin receptor and receptor activity modifying proteins (RAMP)) receptors lead to increased intracellular concentrations of cAMP. In order to quantify the cAMP levels in transiently transfected cells the Adenylyl Cyclase Activation FlashPlate® Assay from […] was used. The basic principle of the FlashPlate® Assay is a competition between radioactive and non-radioactive cAMP generated by the cells for a fixed number of binding sites.
(§3) Construction of rat calcitonin(a)—and rat amylin 3(a)-receptor cells.
(§4) BHK tk'ts 13 cells were transiently transfected with either rat calcitonin (a) receptor or amylin 3 (a) receptor (rat calcitonin(a) receptor+ rat RAMP3) using FuGENE® 6 (ROCHE), according to the manufacturers recommendations.
(§5) 24 hours after transient transfection the cells (rat calcitonin(a)—or rat amylin 3(a)—receptor cells) were added (100.000 cells/well) to the 96 well FlashPlates® with samples or standard in FlashPlate stimulation buffer with IBMX and incubated for 30 min. Detection mix was created according to manufacturers protocol and scintillation measured after 3 h of incubation on TopCounter™ (Packard).

[4] = target: T3, rat calcitonin (a) receptor (Rattus norvegicus, UniProt P32214); assay: Assay (II)b functional cAMP FlashPlate assay, rat calcitonin receptor; type: cell-based; settings: Table 11; read-out: CTa receptor rat EC50
T3 construct: expressed in transfected cells; host or cells: BHK tk'ts 13
T3 sequence (P32214 25-479 isoform P32214-2 limits assumed): T2 sequence (P32214 25-479 isoform P32214-2 limits assumed)
From the text: as §1, §2, §3, §4, §5

[5] = target: T4, human calcitonin receptor (Homo sapiens, UniProt P30988); assay: Assay (II)a functional CRE-luciferase assay, human calcitonin receptor; type: cell-based
T4 construct: expressed in transfected cells; host or cells: BHK570
T4 sequence (P30988 25-474): T1 sequence (P30988 25-474)

[6] = pH 3, pH 3.0, read-out: Solubility pH 3.0
[7] = pH 4, pH 4.0, 18 hours at room temperature, Table 2, read-out: Solubility pH 4.0
[8] = pH 4, pH 4.0, read-out: Solubility pH 4.0
[9] = pH 5, pH 5.0, read-out: Solubility pH 5.0
[10] = pH 6, pH 6.0, read-out: Solubility pH 6.0
[11] = pH 7.5, pH 7.5, read-out: Solubility pH 7.5
[12] = pH 8, pH 8.0, read-out: Solubility pH 8.0
[13] = Table 2, BHK amylin 3(a)-receptor/CRE-luc cells
[14] = Table 3, BHK amylin 3(a)-receptor/CRE-luc cells
[15] = Table 7, human calcitonin (CTa) receptor
[16] = Table 11, read-out: CTa receptor human EC50

SMILES	solubility [1, 6] [µM]	solubility [1, 7] [µM]	solubility [1, 8] [µM]	solubility [1, 9] [µM]	solubility [1, 10] [µM]	solubility [1, 11] [µM]	solubility [1, 12] [µM]	pEC50 [2, 13]	pEC50 [2, 14]	pEC50 ([2]; Table 4)	pEC50 ([2]; Table 5)	pEC50 ([2]; Table 6, human amylin receptor)	pEC50 ([2]; Table 7, human amylin receptor)	pEC50 ([2]; Table 8)	pEC50 ([2]; Table 11)	pEC50 [3]	pEC50 [4]	pEC50 [5, 15]	pEC50 [5, 16]	other results
CC[C@H](C)[C@H](NC(=O)[C@@H]1CCCN1C(=O)CNC(=O)[C@H](Cc1ccccc1)NC(=O)[C@H](CC(N)=O)NC(=O)[C@H](CC(N)=O)NC(=O)[C@H](CO)NC(=O)[C@H](CO)NC(=O)[C@H](CCCNC(=N)N)NC(=O)[C@H](Cc1cnc[nH]1)NC(=O)[C@H](CC(C)C)NC(=O)[C@H](Cc1ccccc1)NC(=O)[C@H](CCC(=O)O)NC(=O)[C@H](C)NC(=O)[C@H](CC(C)C)NC(=O)[C@H](CCCNC(=N)N)NC(=O)[C@H](CCC(N)=O)NC(=O)[C@@H](NC(=O)[C@H](C)NC(=O)[C@@H]1CSSC[C@H](NC(=O)[C@H](CCCCN)NC(=O)[C@@H](CCCNC(=N)N)NC(=O)[C@@H](CCCNC(=N)N)NC(=O)COCCOCCNC(=O)COCCOCCNC(=O)CC[C@H](NC(=O)CCCCCCCCCCCCCCCCCCC(=O)O)C(=O)O)C(=O)N[C@@H](CC(N)=O)C(=O)N[C@@H]([C@@H](C)O)C(=O)N[C@@H](C)C(=O)N[C@@H]([C@@H](C)O)C(=O)N1)[C@@H](C)O)C(=O)N[C@@H](CC(C)C)C(=O)N1CCC[C@H]1C(=O)N1CCC[C@H]1C(=O)N[C@H](C(=O)N[C@@H](CC(N)=O)C(=O)N[C@H](C(=O)NCC(=O)N[C@@H](CO)C(=O)N[C@@H](CC(N)=O)C(=O)N[C@H](C(=O)N[C@@H](Cc1ccc(O)cc1)C(N)=O)[C@@H](C)O)C(C)C)[C@@H](C)O [Example 37, N-alpha-[2-(2-{2-[2-(2-{2-[(S)-4-Carboxy-4-(19-carboxyheptadecanoylamino)butyrylamino]ethoxy}ethoxy)acetylamino]ethoxy}ethoxy)acetyl]-D-Arg-D-Arg-[Glu14,His17,Arg18]-pramlintide] ({C20 diacid-γGlu-AEEA-AEEA}-[dR][dR]KCNTATCATQRLAEFLHRSSNNFGPILPPTNVGSNTY-NH2; disulfide 4-9)	> 200	> 200	> 200	> 200	> 200	> 200	> 200	10.08	10.08	10.08	10.08	10.08	10.08	10.08	10.08	9.88	8.72	9.19	9.19	solubility at 18 h ([1]; pH 6.5, read-out: Solubility pH 6.5): 124 µM (≈ 630 µg/mL); Solubility pH 7.0 (μM) ([1]; pH 7.0, 18 hours at room temperature, Table 3): 198 μM; solubility at 18 h ([1]; pH 7.0, Table 8, read-out: Solubility pH 7.0): 198 µM (≈ 1010 µg/mL); solubility at 18 h ([1]; pH 7.0, read-out: Solubility pH 7.0): 198 µM (≈ 1010 µg/mL)
CC[C@H](C)[C@H](NC(=O)[C@@H]1CCCN1C(=O)CNC(=O)[C@H](Cc1ccccc1)NC(=O)[C@H](CC(N)=O)NC(=O)[C@H](C)NC(=O)[C@H](CO)NC(=O)[C@H](CO)NC(=O)[C@H](CCCNC(=N)N)NC(=O)[C@H](Cc1cnc[nH]1)NC(=O)[C@H](CC(C)C)NC(=O)[C@H](Cc1ccccc1)NC(=O)[C@H](CCC(=O)O)NC(=O)[C@H](C)NC(=O)[C@H](CC(C)C)NC(=O)[C@H](CCCNC(=N)N)NC(=O)[C@H](CCC(N)=O)NC(=O)[C@@H](NC(=O)[C@H](C)NC(=O)[C@@H]1CSSC[C@H](NC(=O)[C@H](CCCCN)NC(=O)[C@@H](CCCNC(=N)N)NC(=O)[C@@H](CCCNC(=N)N)NC(=O)COCCOCCNC(=O)COCCOCCNC(=O)CC[C@H](NC(=O)CCCCCCCCCCCCCCCCCCC(=O)O)C(=O)O)C(=O)N[C@@H](CC(N)=O)C(=O)N[C@@H]([C@@H](C)O)C(=O)N[C@@H](C)C(=O)N[C@@H]([C@@H](C)O)C(=O)N1)[C@@H](C)O)C(=O)N[C@@H](CC(C)C)C(=O)N1CCC[C@H]1C(=O)N1CCC[C@H]1C(=O)N[C@H](C(=O)N[C@@H](CC(N)=O)C(=O)N[C@H](C(=O)NCC(=O)N[C@@H](CO)C(=O)N[C@@H](CO)C(=O)N[C@H](C(=O)N[C@@H](Cc1ccc(O)cc1)C(N)=O)[C@@H](C)O)C(C)C)[C@@H](C)O [Example 38, N-alpha-[2-(2-{2-[2-(2-{2-[(S)-4-Carboxy-4-(19-carboxyheptadecanoylamino)butyrylamino]ethoxy}ethoxy)acetylamino]ethoxy}ethoxy)acetyl]-D-Arg-D-Arg-[Glu14,His17,Arg18,Ala21,Ser35]-pramlintide] ({C20 diacid-γGlu-AEEA-AEEA}-[dR][dR]KCNTATCATQRLAEFLHRSSANFGPILPPTNVGSSTY-NH2; disulfide 4-9)	> 200	> 200	> 200	> 200	> 200	> 200	> 200	9.83	9.83	9.83	9.83	9.83	9.83	9.83	9.83	9.63	8.35	8.95	8.95	solubility ([1]; pH 6.5, pH 6.5, read-out: Solubility pH 6.5): > 200 µM; solubility ([1]; pH 7, pH 7.0, 18 hours at room temperature, Table 3, read-out: Solubility pH 7.0): > 200 µM; solubility ([1]; pH 7, pH 7.0, Table 8, read-out: Solubility pH 7.0): > 200 µM; solubility ([1]; pH 7, pH 7.0, Table 9, read-out: Solubility pH 7.0): > 200 µM; solubility ([1]; pH 7, pH 7.0, read-out: Solubility pH 7.0): > 200 µM; solubility ([1]; pH 7.5, pH 7.5, Table 9, read-out: Solubility pH 7.5): > 200 µM; pEC50 ([2]; Table 9): 9.83
